Data as given in US7282342B2, “Methods for detecting weakly immunogenic analytes” (Neuren Pharmaceuticals Ltd., priority 2001, dated 2007).
Residues, ends and D or L forms follow the SMILES beside them.

System: CK5 antibody
Test: modified double antibody radioimmunoassay, displacement of I125-labeled Bolton and Hunter derivatized GPE
Type: binding, rabbit
Conditions: test substances Bolton and Hunter derivatized; CK5 at 1:18,000

| cross-reactivity with CK5 antibody | Compound |
| --- | --- |
| does not cross-react significantly | NCC(=O)N1CCC[C@H]1C(=O)O [GP, glycyl-L-proline] (H-Gly-Pro-OH) |
| does not cross-react significantly | O=C(O)CC[C@H](NC(=O)[C@@H]1CCCN1)C(=O)O [PE, L-prolyl-L-glutamic acid] (H-Pro-Glu-OH) |
| does not cross-react significantly | N[C@@H](CCC(=O)O)C(=O)O [glutamic acid] |
| does not cross-react significantly | NCC(=O)O [glycine] |
| does not cross-react significantly | O=C(O)[C@@H]1CCCN1 [proline] |
| does not cross-react significantly | IGF-1: insulin-like growth factor-1, the GPE parent molecule |

| Compound | cross-reactivity with CK5 antibody |
| --- | --- |
| NC(N)=O [urea] | does not cross-react significantly |

System: CK5 antibody
Test: standard double antibody radioimmunoassay, displacement of I125-labeled YGPE
Type: binding, rabbit
Conditions: CK5 diluted 1:600; I125-labeled YGPE tracer
Protocol: The CK5 antibody was characterized using a standard double antibody radioimmunoassay technique. Tubes containing either 100 μL 0.02 M phosphate buffered saline assay buffer or peptide (GPE, YGPE (SEQ ID NO:4), KYFGGPE (SEQ ID NO:5), or IGF-1) dissolved in assay buffer at various concentrations were preincubated with CK5 antibody (diluted at 1:600) for 24 h at 4° C. I^125-labeled YGPE (10,000 cpm) was then added to the tubes. After a further 48 h incubation at 4° C., the bound and free GPE were separated by adding donkey anti-rabbit serum (1:100). The tubes were incubated with this second antibody overnight at 4° C. before centrifugation (3,200 rpm for 30 min), after which the supernatant was aspirated, and the precipitate counted in a gamma counter. One antibody, CK5, was identified. […] Unlabeled GPE was able to displace I^125-labeled YGPE with an ED50 of approximately 200 ng/tube.

| cross-reactivity with CK5 antibody | Compound |
| --- | --- |
| does not cross-react significantly | IGF-1: insulin-like growth factor-1, the GPE parent molecule |
